Values after ≈ are worked out from the molar mass of the structure shown. Non-standard residues stand in square brackets, D forms with d. Residues, ends and D or L forms follow the SMILES beside them. ξ: configuration not given here. *: point of attachment. dNMeW = CN[C@H](Cc1c[nH]c2ccccc12)C(=O)O; ξNMeW = CNC(Cc1c[nH]c2ccccc12)C(=O)O; ξW = NC(Cc1c[nH]c2ccccc12)C(=O)O; NMeAib = CNC(C)(C)C(=O)O; Boc = CC(C)(C)OC(=O)*; Aib = CC(C)(N)C(=O)O; OtBu = CC(C)(C)O*
Assays:
[1] = Aqueous solubility at pH 7.4; type: physicochemical; conditions: aqueous medium at pH 7.4, aqueous buffer
Method: The aqueous solubility of exemplary dipeptide analogs as disclosed herein was tested at pH 7.4.

[2] = Metabolic stability in rat liver microsomes; type: in vitro ADME; conditions: % of compound remaining after 30 minutes
Method: (§1) The metabolic stability of exemplary peptide analogs as disclosed herein was tested in Human and Rat liver microsomes (HLM and RLM, respectively). The obtained data is presented in Table 5 below, as % of compound remaining after 30 minutes). All of the peptides were found sufficiently stable.

[3] = Metabolic stability in human liver microsomes; type: in vitro ADME; conditions: % of compound remaining after 30 minutes
Method: as §1

[4] = system: human P-gp (PGP); experiment: Membrane permeability in MDCKII/PGP cells; type: in vitro ADME; conditions: dog, MDCK-MDR1; MDCKII cells transfected with human PGP; read-out: Permeability MDCKII/PGP A-B (apical-basolateral flux)
Method: (§2) Exemplary peptide analogs as disclosed herein were tested for membrane permeability in MDCKII cells transfected with human PGP, for evaluating intestinal absorption. The data obtained in presented in Table 5 below, where A-B is the apical-basolateral flux and AI is the asymmetry index.

[5] = system: P-gp (human PGP); experiment: Membrane permeability in MDCKII/PGP cells; type: in vitro ADME; conditions: dog, MDCK-MDR1; MDCKII cells transfected with human PGP; read-out: Permeability MDCKII/PGP AI (asymmetry index)
Method: as §2

[6] = target: T1, Aβ1-42 (Homo sapiens, UniProt P05067); experiment: Aβ1-42 globulomer generation / oligomer formation (Hillen protocol), gel staining and western blot; type: biochemical
T1 construct: β-amyloid polypeptides (Aβ 1-42, >98% pure); purchased Bachem (Bubendorf, Switzerland); host or cells: chemical synthesis
Method: Aβ1-42 intermediates and globulomers were produced according to Barghorn et al. [J. Neurochem. 2005 November; 95(3):834-47]. Synthetic lyophilized β-amyloid polypeptides (Aβ 1-42, >98% pure) were purchased from Bachem (Bubendorf, Switzerland). To avoid pre-aggregation, synthetic lyophilized Aβ1-42 was pretreated with HFIP. Aβ1-42 was dissolved in 100% HFIP, sonicated for 20 seconds and incubated for 2 hours at 37° C. under shaking at 100 RPM. After evaporation in a speedVac, Aβ1-42 was re-suspended in DMSO, with or without the tested peptide, to 5 mM and diluted with 20 mM NaH2PO4, 140 mM NaCl, pH 7.4, to a final concentration of 400 μM, and 1/10 volume 2% SDS (final concentration of 0.2%). The Aβ globulomers were generated by further dilution with two volumes of H2O and incubation for 18 hours or more.
To evaluate the effect of D-Trp-Aib analogs on the transformation of the Aβ1-42 into the toxic assemblies, the tested peptides were incubated with Aβ1-42 at increasing molar ratios, and the reaction mixtures were resolved on SDS-PAGE followed by western blot analysis by a specific anti Aβ antibody (6E10) (SIGNET).

[7] = target: T2, Aβ monomers (Homo sapiens, UniProt P05067); experiment: SPR binding assay (BIACORE X100); conditions: immobilized Aβ monomers, 25° C., steady-state; mean ± SD; read-out: SPR binding IC50 [nM] +/− SD (repeats)
T2 construct: Aβ monomers were covalently coupled to one flow cell of CM7 sensor chips
Method: Surface Plasmon Resonance (SPR) studies were performed using a BIACORE X100 biosensor instrument (GE Lifesciences, Uppsala, Sweden), equipped with two flow cells on a sensor chip. Aβ monomers were covalently coupled to one flow cell of CM7 sensor chips (GE Lifesciences, Uppsala, Sweden) via primary amines using the Amine Coupling Kit (GE Lifesciences, Uppsala, Sweden). As a control, ethanolamine was immobilized on the reference channel. […] One RU represents about 1 pg/mm^2 of the analytes on the surface matrix of the sensor chip. […] The stock solutions were diluted 1:1000 in HBS-EP buffer which contains 0.01M HEPES, pH7.4, 0.15M NaCl, 3 mM EDTA, and 0.005% of surfactant P20. HBS-EP+0.1% (v/v) DMSO was used as assay running buffer. The test solutions were injected over the sensor chip in concentrations ranging from 0.1 nM to 300 nM at a flow rate of 10 μl/min for 180 seconds at 25° C. Concentrations were tested in duplicate. The RUs elicited by the compound injected into the ethanolamine control flow cell was set as reference response and subtracted from the RUs elicited by the same compound injected to the Aβ saturated flow cell. The relationships between each RU obtained at the steady state of binding (plateau of the binding curve) and each concentration of the compound were plotted. After the analyte injection was stopped, HBS-EP buffer was flowed over the chip for 180 s to allow the bound analyte to dissociate from the immobilized Aβ and the dissociation curves were obtained. After the dissociation phase, regeneration solution (1M NaCl, 50 mM NaOH) was injected and flowed over the chip for 30 seconds to remove the residual bound analytes from the immobilized Aβ. BIACORE X100 control software Ver 1.1 was used to record the binding curves and BIACORE X100 evaluation software Ver 1.1 to analyze the curves (plot each RU at the steady state vs. concentration of analyte, fit the plot, determine KD values). The dissociation equilibrium constant KD of the analyte to the immobilized Aβ was determined from the steady-state levels estimating the maximum RU Rmax and calculating the KD as the concentration of the compound that elicited one-half of the Rmax.

T2 sequence (P05067 672-713 limits assumed): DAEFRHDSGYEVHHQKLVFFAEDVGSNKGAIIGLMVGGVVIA
T1 sequence (P05067 672-713 limits assumed): as above

In the case of `CC(=O)NC(Cc1c[nH]c2ccccc12)C(=O)NC(C)(C)C(=O)O` (stereo not drawn), the solubility [1] is reported as 253 µM (≈ 83.8 µg/mL), the “Metabolic Stability (%) RLM” value [2] is reported as >100% and the “Metabolic Stability (%) HLM” value [3] is reported as 90%. The Papp A→B [4] was 1.5 ×10⁻⁶ cm/s and the efflux ratio [5] was 0.7.
For `CC(C)(NC(=O)C(Cc1c[nH]c2ccccc12)NC=O)C(=O)O` (stereo not drawn), the solubility [1] was 222 µM (≈ 70.5 µg/mL), the “Metabolic Stability (%) RLM” value [2] was >100% and the “Metabolic Stability (%) HLM” value [3] was 87%. The Papp A→B [4] was 1.3 ×10⁻⁶ cm/s and the efflux ratio [5] was 0.7.
With `CC(=O)N(C)C(Cc1c[nH]c2ccccc12)C(=O)NC(C)(C)C(=O)O` (stereo not drawn) (Ac-[ξNMeW]-[Aib]-OH) the solubility [1] was > 278 µM, the Papp A→B [4] was 1.3 ×10⁻⁶ cm/s and the efflux ratio [5] was 0.8.
For `CC(C)(NC(=O)C(N)Cc1c[nH]c2ccccc12)C(N)=O` (stereo not drawn) (H-[ξW]-[Aib]-NH2), the solubility [1] was > 355 µM, the “Metabolic Stability (%) RLM” value [2] was >100% and the “Metabolic Stability (%) HLM” value [3] was >100%. For the same compound, the Papp A→B [4] was 1.6 ×10⁻⁶ cm/s.
For `CC(C)(C)OC(=O)C(C)(C)NC(=O)[C@H](N)Cc1c[nH]c2ccccc12` [Compound 1] (H-[dW]-[Aib]-OtBu), the “inhibition of Aβ1-42 globulomer formation” value ([6]; 10:1 (inhibitor:Aβ peptide) molar ratio) was “inhibit” and the “inhibition of Aβ1-42 globulomer formation” value ([6]; 20:1 (inhibitor:Aβ peptide) molar ratio) was “inhibit”.
With `CC(=O)N[C@H](Cc1c[nH]c2ccccc12)C(=O)NC(C)(C)C(=O)O` [Compound A] the IC50 [7] was 2.8 ± 0.8 nM.
In the case of `CC(=O)N(C)[C@H](Cc1c[nH]c2ccccc12)C(=O)NC(C)(C)C(=O)O` [Compound B] (Ac-[dNMeW]-[Aib]-OH), the IC50 [7] is reported as 56.4 ± 32.7 nM.
With `CC(C)(NC(=O)[C@@H](Cc1c[nH]c2ccccc12)NC=O)C(=O)O` [Compound C] the IC50 [7] was 3.9 ± 0.1 nM.
For `CNC(=O)C(C)(C)NC(=O)[C@H](N)Cc1c[nH]c2ccccc12` [Compound E] (H-[dW]-[Aib]-NHMe), the IC50 [7] was 40.2 ± 3.4 nM.
Compound `CN(C)C(=O)C(C)(C)NC(=O)[C@H](N)Cc1c[nH]c2ccccc12` [Compound F] (H-[dW]-[Aib]-NMe2) has an IC50 [7] of 4.2 nM.
With `CN(C(=O)[C@@H](Cc1c[nH]c2ccccc12)NC(=O)OC(C)(C)C)C(C)(C)C(=O)O` [Compound Q] (Boc-[dW]-[NMeAib]-OH) the IC50 [7] was 3.8 ± 1.4 nM.
`CC(=O)N[C@H](Cc1c[nH]c2ccccc12)C(=O)N(C)C(C)(C)C(=O)O` [Compound R] (Ac-[dW]-[NMeAib]-OH) gave an IC50 [7] of 4.3 ± 1 nM.
With `CC(C)(C)OC(=O)N/C(=C\c1c[nH]c2ccccc12)C(=O)NC(C)(C)C(N)=O` [Compound T] the IC50 [7] was 1.5 ± 0.6 nM.
`CC(C)(C)OC(=O)N/C(=C\c1c[nH]c2ccccc12)C(=O)NC(C)(C)C(=O)O` [Compound U] showed an IC50 [7] of 6.2 ± 1.9 nM.
With `CNC(=O)C(C)(C)N(C)C(=O)[C@@H](Cc1c[nH]c2ccccc12)NC(C)=O` [Compound V] (Ac-[dW]-[NMeAib]-NHMe) the IC50 [7] was 0.5 nM.
For `CC(C)(C)OC(=O)N/C(=C\c1c[nH]c2ccccc12)C(=O)NC(C)(C)C(=O)O` [drawing 63], the solubility [1] was > 280 µM, the “Metabolic Stability (%) RLM” value [2] was 81% and the “Metabolic Stability (%) HLM” value [3] was 95%. The Papp A→B [4] was 2.1 ×10⁻⁶ cm/s and the efflux ratio [5] was 1.2.
For `CC(C)(C)OC(=O)N/C(=C\c1c[nH]c2ccccc12)C(=O)NC(C)(C)C(N)=O` [drawing 64], the solubility [1] was > 282 µM, the Papp A→B [4] was 10.6 ×10⁻⁶ cm/s and the efflux ratio [5] was 1.6.
For `CN(C(=O)[C@@H](Cc1c[nH]c2ccccc12)NC(=O)OC(C)(C)C)C(C)(C)C(=O)O` [drawing 65] (Boc-[dW]-[NMeAib]-OH), the solubility [1] was 239 µM (≈ 96.4 µg/mL), the “Metabolic Stability (%) RLM” value [2] was 87% and the “Metabolic Stability (%) HLM” value [3] was 100%. It also gave a Papp A→B [4] of 1.4 ×10⁻⁶ cm/s and an efflux ratio [5] of 0.3.
In the case of `CC(=O)N[C@H](Cc1c[nH]c2ccccc12)C(=O)N(C)C(C)(C)C(=O)O` [drawing 66] (Ac-[dW]-[NMeAib]-OH), the solubility [1] is reported as > 286 µM, the “Metabolic Stability (%) RLM” value [2] is reported as >100% and the “Metabolic Stability (%) HLM” value [3] is reported as 88%. It also gave a Papp A→B [4] of 0.7 ×10⁻⁶ cm/s and an efflux ratio [5] of 1.
In the case of `CC(C)(NC(=O)C(N)Cc1c[nH]c2ccccc12)C(=O)O` (stereo not drawn) [reference compound], the solubility [1] is reported as > 350 µM, the “Metabolic Stability (%) RLM” value [2] is reported as >100% and the “Metabolic Stability (%) HLM” value [3] is reported as >100%. The Papp A→B [4] was 1.2 ×10⁻⁶ cm/s.
